Source: patent US8771953B2, “Evaluation of the potential risk of drug induced mood disturbance and suicide: use of a dedicated platform” (Biocortech, priority 2008, dated 2014)
Like-named read-outs stand apart in the source and are kept apart here.

Columns and labels:
5-HT2cR mRNA = assay: Editing profile of 5-HT2cR mRNA isoforms by CE-SSCP (nested PCR) in SH-SY5Y cells; enzyme activity indexes worked out from the profile; type: cell-based, human; details: Homo sapiens, SH-SY5Y, 10 micromolar, 24 hours
ADAR1a mRNA = assay: Q-PCR of ADAR1a mRNA expression in SH-SY5Y cells; type: cell-based; details: Homo sapiens, 10 micromolar, 24 hours, read-out: QPCR: RNA expresion (% of variation) ADAR1a
From the text: ADAR1a RNA Expression in SH-SY5Y cells (Q-PCR, Applied TaqMan probes ref: Hs 01020780_m1).
(§1) The SH-SY5Y Human neuroblastoma cell line was purchased from ECACC (EC94030304 from the European Collection of Cell Cultures (ECACC)). The cell line SH-SY5Y is a thrice-cloned neuroblastoma, originally from SK-N-SH and first reported in 1978. A neuroblast-like subclone of SK-N-SH, named SH-SY, was subcloned as SH-SY5, which was subcloned again as SH-SY5Y (Biedler J L et al. Cancer Res. 1978; 38:3751-7). Cells were cultured in high glucose D-MEM medium (Sigma, ref D6546) supplemented with 10% dialysed FCS (PAA, ref. A15-507, lot A50708-0050), 2 mM Glutamine (Sigma, G7513) and a 1× mix of Antibiotic-Antimycotic Stabilized (Sigma, ref. A5955) at 37° C. under a humidified atmosphere of 5% CO2. The day preceeding drug or hIFNα treatment, SH-SY5Y cells were plated in 6-well plates at a density of 10^6 cells/well. One 6-well plate was used per experimental condition (concentration or treatment duration). The day after plating, culture medium was removed and cells were incubated for 24 hours with a 10 μM solution of the compound to be tested molecules or a 1000 IU/ml solution of hIFNα (PBL biomedical laboratories). For hIFNα dose-response experiment cells were incubated with 1, 10, 100, and 1000 IU/ml of hIFNα solutions. For hIFNα time-course experiment cells were treated for 24, 48, or 72 hours with a 1000 IU/ml solution of hIFNα. After the different treatments, cells were directly lysed in RLT lysis buffer and total RNA purified according to manufacturer's protocol (Qiagen, RNeasy Plus mini kit, ref. 74134). Total RNA was then reverse transcribed with Thermoscript RT-PCR system Plus Taq (Invitrogen, 11146-032) and the resulting cDNA used for CE-SSCP and quantitative real-time PCR.
(§2) In order to quantify levels of 5-HT2CR, ADAR1 and ADAR2 mRNA expression in SH-SY5Y cells or in prefrontal cortex, total blood and skin of Balb/cJ mice, first-strand cDNA was synthesized by reverse transcription and subjected to TaqMan quantitative real-time PCR analysis (Applied Biosystems). All probes and primers used for the quantitative PCRs were from Applied Bio systems (Gene Expression Assays, Assay-On-Demand) (see Table 1, Applied Biosystems primers and probes references): […]
(§3) Human GAPDH (product no. 4326317E; Applied Biosystems) or mouse GAPDH (product no. 4352339E; Applied Biosystems) were included in each multiplex PCR as an internal control. Real-time PCR and subsequent analysis were performed with a 48-well block StepOne RT PCR system (Applied Biosystems). Quantification of target gene expression in all samples was normalized to GAPDH expression by the equation Ct (target)−Ct (GAPDH)=ΔCt, where Ct is the threshold cycle number. The mean ΔCt value of samples from untreated mice or cells was determined and used as a reference point for the samples corresponding to treated animals or cells. Differences between untreated and treated animals or cells, including individual variation were calculated by the equation (ΔCt (individual treated samples)−ΔCt (mean of untreated samples)=ΔΔCt). Changes in target gene expression (n-fold) in each sample were calculated by 2^−ΔΔCt, from which the means and standard deviations (SD) were derived.
(§4) The SH-SY5Y Human neuroblastoma cell line was purchased from ECACC. Cells were cultured in high glucose D-MEM medium (Sigma, ref. D6546) supplemented with 10% dialysed FCS (PAA, ref. A15-507, lot A50708-0050), 2 mM Glutamine (Sigma, ref. G7513) and a 1× mix of Antibiotic-Antimycotic Stabilized (Sigma, ref. A5955) at 37° C. under a humidified atmosphere of 5% CO2. The day preceeding hIFNα or drug treatment, SH-SY5Y cells were plated in 6-well plates (Corning, Multiwell Plate, 6 well, Corning CellBIND Surface, ref 3335) at a density of 5; 7 or 9·10^6 cells/well for a 72-, 48- or 24-hour treatment respectively. Six or eight wells of 6-well plates were used per experimental condition (control, concentration or treatment duration).

ADAR1b mRNA = assay: Q-PCR of ADAR1b mRNA expression in SH-SY5Y cells; type: cell-based; details: Homo sapiens, 10 micromolar, 24 hours, read-out: QPCR: RNA expresion (% of variation) ADAR1b
Procedure: as §1, §2, §3, §4

ADAR2 mRNA = assay: Q-PCR of ADAR2 mRNA expression in SH-SY5Y cells; type: cell-based; details: Homo sapiens, 10 micromolar, 24 hours, read-out: QPCR: RNA expresion (% of variation) ADAR2
Procedure: as §1, §2, §3, §4

[1] = read-out: ENZYME ACTIVIY INDEX (% of variation) ADAR1
[2] = read-out: ENZYME ACTIVIY INDEX (% of variation) ADAR1 + 2
[3] = read-out: ENZYME ACTIVIY INDEX (% of variation) ADAR2
[4] = read-out: ENZYME ACTIVIY INDEX (% of variation) ADARI
[5] = read-out: ENZYME ACTIVIY INDEX (% of variation) ADARII
[6] = read-out: ENZYME ACTIVIY INDEX (% of variation) NE

| SMILES | activation at 10 µM (5-HT2cR mRNA; [1]) | activation at 10 µM (5-HT2cR mRNA; [2]) | activation at 10 µM (5-HT2cR mRNA; [3]) | activation at 10 µM (5-HT2cR mRNA; [4]) | activation at 10 µM (5-HT2cR mRNA; [5]) | activation at 10 µM (5-HT2cR mRNA; [6]) | % change in ADAR1a mRNA expression at 10 µM (ADAR1a mRNA) | percent change in mRNA expression at 10 µM (ADAR1b mRNA) | percent change in ADAR2 mRNA expression at 10 µM (ADAR2 mRNA) |
| --- | --- | --- | --- | --- | --- | --- | --- | --- | --- |
| CC[C@@H](C(N)=O)N1CCCC1=O [Levetiracetam] | 12% | -36.6% | 10.9% | 2.8% | -27.4% | -3.1% | -9% | -11% | -17% |
| CC(NC(C)(C)C)C(=O)c1cccc(Cl)c1 (stereo not drawn) [Bupropion] | -16.3% | 42.6% | 68.9% | -8.9% | 34.7% | 5.3% | -66% | -51% | -40% |
